Data set [1] concerns three melanoma cell lines and four human prostate cancer cell lines. As to the kind of experiment: SRB cytotoxicity, melanoma and prostate cancer cell lines (ranges and averages over the panel). Conditions: for antiproliferative activity (in words): Tables 1-3. The data set is classed as cell-based.
A short description of data set [2]: Metabolic stability in human liver microsomes. On the technique in general: Liver microsomes are vesicles of endoplasmic reticulum, rich in cytochrome P450 enzymes.
Data set [3] has as its system LNCaP cells. The experiment in a line: SRB cytotoxicity assay, LNCaP. The data set is classed as cell-based, human. The following applies: read-out: IC50 ± SEM LNCaP. An excerpt:
(§1) Cells were stained with SRB solution.
(In SRB staining, fixed cells bind dye roughly in proportion to their protein.)

Data set [4] concerns PC-3 cells. Conditions: 96 h.
Excerpt: as §1
Cells were stained with sulphorhodamine B (SRB) solution.

The test system of data set [5] is microtubules in WM-164 melanoma cells. As to the kind of experiment: Microtubule imaging (immunofluorescence), WM-164. The data set is classed as cell-based, human. The following applies: 18 h.
For data set [6], the system named is B16-F1 melanoma cells. The experiment in a line: B16-F1 melanoma colony formation assay in soft agar. In kind it is cell-based, mouse. Conditions: 14 days; tested 20, 100, 500 nM. On the procedure: B16-F1 melanoma cells were plated at a colony-forming density (2000 cells per well on six-well plates) on top of 0.8% base agar. Cells were grown in 0.4% agar together with DMEM medium supplemented with fetal bovine serum and an antibiotic-antimycotic solution at 37° C. in an atmosphere of 95% air and 5% CO2. […] Compounds were added to the media from 1 mM DMSO stock solutions, and a corresponding dilution of DMSO was used as control. Cells were grown for 14 days. Plates were photographed, and the number of colonies was measured by Artek 880 Automated Colony Counter (Artek Systems Corporation, Farmingdale, N.Y.).

Data set [7] deals with PPC-1 cells. The following applies: read-out: IC50 ± SEM PPC-1; Table 12; 96 h.
Excerpt: as §1

The test system of data set [8] is DU 145 cells. As to the kind of experiment: SRB cytotoxicity assay, DU 145. In kind it is cell-based, human. Conditions: Table 12; 96 h; read-out: IC50 ± SEM Du 145.
Excerpt: as §1

The test system of data set [9] is HUVEC monolayers. As to the kind of experiment: Endothelial monolayer permeability assay (FITC-dextran, transwell). The following applies: 1, 2, 4 h.
The subject of data set [10] is PC-3/TxR xenografts. In kind it is in vivo. Conditions: for Tumor size Start: PC-3/TxR xenograft.
In data set [11] the test system is A375 melanoma xenografts. As to the kind of experiment: In vivo efficacy, A375 melanoma xenograft in nude mice (SMART compounds). The following applies: Melanoma (A375) xenograft, 20 mg/kg i.p. Also on record: species or system mouse.
The subject of data set [12] is tubulin (colchicine, vinblastine, paclitaxel binding sites). As to the kind of experiment: MS competitive binding assay. An excerpt: Each reaction was run in triplicate.
Where [13] appears, read: average of all seven cell lines, read-out: average IC50.
[14] abbreviates: read-out: IC50 ± SEM PC-3, Table 12.

Where two headings read alike, the source gives them in different places.

As usually defined, the IC50 is the concentration needed to halve the response being measured. The TGI is the reduction of tumour growth relative to the control group. Low readings indicate little slowing of growth, high ones much slowing of growth.

Consider `COc1cc(C(=O)c2cccc(-c3ccccc3)c2)cc(OC)c1OC` [1a, Biphenyl-3-yl(3,4,5-trimethoxyphenyl)methanone], for which the “antiproliferative activity (in words)” value in data set [1] was “hundreds of nanomolar range”.

Take `COc1cc(C(O)c2csc(-c3ccccc3)n2)cc(OC)c1OC` (centres unmarked) [2b, (2-Phenylthiazol-4-yl)(3,4,5-trimethoxyphenyl)methanol]: the “antiproliferative activity (in words)” value in data set [1] was “inactive”.

In the case of `COc1cc(/C(=N/O)c2csc(-c3ccccc3)n2)cc(OC)c1OC` [2e-cis, (Z)-(2-Phenylthiazol-4-yl)(3,4,5-trimethoxyphenyl)methanone oxime], the “fold more activity than anti-isomer 2e-trans” value in [1] is listed as 10 fold. Also, the “Half life in Human liver microsome” value in data set [2] (Table 20) is recorded as 35 min. Consider `COc1cc(C(=O)c2csc(-c3cc(F)c(F)c(F)c3)n2)cc(OC)c1OC` [2p], for which the IC50 in [3] (Table 6) is over 10 µM. As for `CNCc1ccc(-c2nc(C(=O)c3cc(OC)c(OC)c(OC)c3)cs2)cc1.Cl` [2s, (2-(4-((Methylamino)methyl)phenyl)thiazol-4-yl)(3,4,5-trimethoxyphenyl)methanone hydrochloride], the “antiproliferative activity (in words)” value in data set [1] was “abrogated activity”.

As for `COc1cc(C(=O)c2csc(-c3ccc(CN(C)C)cc3)n2)cc(OC)c1OC.Cl` [2u, (2-(4-((Dimethylamino)methyl)phenyl)thiazol-4-yl)(3,4,5-trimethoxyphenyl)methanone hydrochloride], in data set [1], the “antiproliferative activity (in words)” value is given as “abrogated activity”. Regarding `COc1cc(/C=C\c2csc(-c3ccccc3)n2)cc(OC)c1OC` [3a, (Z)-2-Phenyl-4-(3,4,5-trimethoxystyryl)thiazole], the “antiproliferative activity (in words)” value in data set [1] was “lost activity”.

For `O=S(=O)(c1ccccc1)n1ccnc1-c1ccccc1` [10a, 2-phenyl-1-(phenylsulfonyl)-1H-imidazole], the IC50 in data set [4] (read-out: IC50 PC-3, Table 11) is over 10 µM.

Take `O=S(=O)(c1ccccc1)n1ccnc1-c1ccc(OCc2ccccc2)cc1` [10j, 2-(4-(benzyloxy)phenyl)-1-(phenylsulfonyl)-1H-imidazole]: the IC50 in data set [4] (read-out: IC50 PC-3, Table 11) was over 10 µM.

For the compound `O=[N+]([O-])c1ccc(-c2nccn2S(=O)(=O)c2ccccc2)cc1` [10x, 2-(4-nitrophenyl)-1-(phenylsulfonyl)-1H-imidazole], the IC50 in [4] (read-out: IC50 PC-3, Table 11) is over 10 µM. For the compound `COc1cc(C(=O)n2ccnc2-c2ccccc2)cc(OC)c1OC` [12aaa, (2-phenyl-1H-imidazol-1-yl)(3,4,5-trimethoxyphenyl)methanone], the IC50 in data set [4] (read-out: IC50 PC-3, Table 11) was over 10 µM.

On to `COc1ccc(C(=O)n2ccnc2-c2ccccc2)cc1` [12aba, (4-methoxyphenyl)(2-phenyl-1H-imidazol-1-yl)methanone], for which the IC50 in [4] (read-out: IC50 PC-3, Table 11) is over 10 µM.

On to `COc1ccc(C(=O)c2c[nH]c(-c3ccccc3)n2)cc1OC` [12ae, (3,4-dimethoxyphenyl)(2-phenyl-1H-imidazol-4-yl)methanone], for which the IC50 in data set [4] (read-out: IC50 PC-3, Table 11) was over 10 µM. Still for that read-out and setting: then `O=C(c1cccc(F)c1)c1c[nH]c(-c2ccccc2)n1` [12ag, (3-fluorophenyl)(2-phenyl-1H-imidazol-4-yl)methanone], with over 10 µM.

On to `COc1ccc(-c2nc(C(=O)c3ccc(F)cc3)c[nH]2)cc1` [12cb, (4-fluorophenyl)(2-(4-methoxyphenyl)-1H-imidazol-4-yl)methanone], for which the effect on microtubules result in data set [5] is recorded as “microtubule fragmentation”. Moreover, in data set [6], the “lowest tested concentration with effective inhibition of colony formation” value was determined as 20 nM.

As for `COc1cc(C(=O)c2c[nH]c(-c3ccc(C)cc3)n2)cc(OC)c1OC` [12da, (2-(p-tolyl)-1H-imidazol-4-yl)(3,4,5-trimethoxyphenyl)methanone], the effect on microtubules entry in data set [5] was “microtubule fragmentation”. In addition, the “lowest tested concentration with effective inhibition of colony formation” value in data set [6] is on record as 20 nM.

For the compound `COc1cc(C(=O)c2c[nH]c(-c3cc(OC)c(OC)c(OC)c3)n2)cc(OC)c1OC` [12ea, (3,4,5-trimethoxyphenyl)(2-(3,4,5-trimethoxyphenyl)-1H-imidazol-4-yl)methanone], the IC50 is over 10 µM in [1] (setting [13]); over 10 µM in data set [3] (Table 12, 96 h); over 10 µM in [4] (setting [14]); over 10 µM in data set [7]; over 10 µM in data set [8]. On to `COc1cc(-c2nc(C(=O)c3ccc(F)cc3)c[nH]2)cc(OC)c1OC` [12eb, (4-fluorophenyl)(2-(3,4,5-trimethoxyphenyl)-1H-imidazol-4-yl)methanone], for which the IC50 in data set [1] (setting [13]) was over 10 µM; in data set [3] (Table 12, 96 h), over 10 µM; in [4] (setting [14]) it was over 10 µM; in [7], over 10 µM; in [8], over 10 µM. For `O=C(c1ccc(F)cc1)c1c[nH]c(-c2ccc(Cl)cc2)n1` [12fb, (2-(4-chlorophenyl)-1H-imidazol-4-yl)(4-fluorophenyl)methanone], the “lowest tested concentration with effective inhibition of colony formation” value in data set [6] was 100 nM. As to `O=C(c1ccc(F)cc1)c1c[nH]c(-c2ccccc2C(F)(F)F)n1` [12ib, (4-fluorophenyl)(2-(2-(trifluoromethyl)phenyl)-1H-imidazol-4-yl)methanone], the IC50 in data set [1] (setting [13]) is over 10 µM. For `O=C(c1ccc(F)cc1)c1c[nH]c(-c2ccc(OCc3ccccc3)cc2)n1` [12jb, (2-(4-(benzyloxy)phenyl)-1H-imidazol-4-yl)(4-fluorophenyl)methanone], the “increase in activity compared with 12kb” value in data set [1] worked out at 440 fold. As for `COc1cc(C(=O)c2c[nH]c(-c3ccc(Br)cc3)n2)cc(OC)c1OC` [12la, (2-(4-bromophenyl)-1H-imidazol-4-yl)(3,4,5-trimethoxyphenyl)methanone], the IC50 in data set [1] (Homo sapiens, text on Tables 1, 2, 13, read-out: IC50 (range over cell lines)) was in the range of 1 to 50 µM.

With `O=C(c1cc(O)c(O)c(O)c1)c1c[nH]c(-c2cc(O)c(O)c(O)c2)n1` [13ea, (3,4,5-trihydroxyphenyl)(2-(3,4,5-trihydroxyphenyl)-1H-imidazol-4-yl)methanone], the IC50 was over 10 µM in data set [3] (Table 12, 96 h); over 10 µM in data set [4] (setting [14]); over 10 µM in [7]; over 10 µM in data set [8].

Consider `O=C(c1cc(O)c(O)c(O)c1)c1c[nH]c(-c2ccc(Cl)cc2)n1` [13fa, (2-(4-chlorophenyl)-1H-imidazol-4-yl)(3,4,5-trihydroxyphenyl)methanone], for which the IC50 in data set [7] is over 10 µM. With `COc1cc(C(=O)[C@H]2COC(c3ccccc3)=N2)cc(OC)c1OC` [35a, (2R)-(2-Phenyl-4,5-dihydro-oxazol-4-yl)-(3,4,5trimethoxy-phenyl)-methasone], the “antiproliferative activity (in words)” value in data set [1] was “hundreds of nanomolar range”.

Turning to `COc1cc(C(=O)c2coc(-c3ccccc3)n2)cc(OC)c1OC` [36a, (2-Phenyl-oxazol-4-yl)-(3,4,5-trimethoxy-phenyl)-methanone], the “antiproliferative activity (in words)” value in data set [1] is on record as “hundreds of nanomolar range”.

In the case of `COc1ccc(S(=O)(=O)Nc2cccnc2Nc2ccc(O)cc2)cc1` [ABT-751, reference compound], the effect on microtubules result in data set [5] is “microtubule fragmentation”. For `COc1ccc(/C=C\c2cc(OC)c(OC)c(OC)c2)cc1O` [CA4, Combretastatin A-4], the “permeability of endothelial cell monolayer” value (“permeability” for short) in data set [9] was “increased permeability”. Regarding `CC(=O)O[C@@]12CO[C@@H]1C[C@H](O)[C@@]1(C)C(=O)[C@H](O)C3=C(C)[C@@H](OC(=O)[C@H](O)[C@@H](NC(=O)OC(C)(C)C)c4ccccc4)C[C@@](O)([C@@H](OC(=O)c4ccccc4)[C@H]21)C3(C)C` [Docetaxel, reference compound], the “Tumor size Start” value in [10] (IV 10 mpk, day 1 and 9, end point day 19) worked out at 143 ± 20 mm^3. Take `COc1cccc2c1C(=O)c1c(O)c3c(c(O)c1C2=O)C[C@@](O)(C(=O)CO)C[C@@H]3O[C@H]1C[C@H](N)[C@H](O)[C@H](C)O1` [Doxorubicin]: the “permeability” value in data set [9] is “did not induce any change”.

In data set [11], `COc1cc(C(=O)c2csc(-c3ccccc3)n2)cc(OC)c1OC` [SMART-H] registered a T-C of 10 days. Also, the “Total log cell kill” value in [11] (doubling time 4.6 d) came to 0.7. On to `COc1cc(C(=O)c2csc(Nc3ccc4[nH]ccc4c3)n2)cc(OC)c1OC` [compound 55, (2-(1H-indol-5-yl amino)thiazol-4-yl)(3,4,5-trimethoxyphenyl)methanone], for which the “competition with colchicine-tubulin binding” value in [12] is on record as “competed effectively with colchicine”. In addition, in data set [9], the “permeability” value is recorded as “increased permeability”. For the same compound, the “Half-life in HLM (Phase I)” value in data set [2] (Table 16B, Phase I) was 30 min. Moreover, the “Half-life in HLM (Phase I + II)” value in data set [2] (Table 16B, Phase I + II (UDP-glucuronic acid present)) is listed as 43 min. Moreover, the “Tumor size Start” value in data set [10] (PO 10 mpk, b.i.d × 5/w, end point day 26) was found to be 143 ± 44 mm^3; in data set [10] (PO 30 mpk, b.i.d × 5/w, end point day 26), 134 ± 34 mm^3. In [10] (p.o. 30 mg/kg b.i.d., five times a week, day 19 to 26), this compound returned a TGI of over 100%.

For the origin of these results see patent publication US8822513B2, “Compounds for treatment of cancer” (GTX, Inc., priority 2010, dated 2014).
